Test results: PubChem BioAssay (NCI)
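Values below derive from 48-hour exposures of cells grown in 96-well plates, with endpoints linearly interpolated between the two concentrations bracketing the appropriate inhibition level. Definition used: TGI = concentration required for complete inhibition of growth.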

Key:
Assay in all cases: growth of human tumour cells (NCI), 48 h
[1] = system: ACHN renal
[2] = system: A549 NSCLC
[3] = system: XF 498 CNS
[4] = system: IGROV1 ovarian
[5] = system: SW-620 colon
[6] = system: M14 melanoma
[7] = system: MOLT-4 leukemia
[8] = system: SNB-75 CNS
[9] = system: OVCAR-4 ovarian
[10] = system: EKVX NSCLC
[11] = system: COLO 205 colon
[12] = system: CAKI-1 renal
[13] = system: LOX IMVI melanoma
[14] = system: MALME-3M melanoma
[15] = system: SN12C renal
[16] = system: CCRF-CEM leukemia
[17] = system: DLD-1 colon
[18] = system: NCI-H23 lung
[19] = system: NCI-H460 lung
[20] = system: SF-268 CNS
[21] = system: UACC-257 melanoma
[22] = system: OVCAR-5 ovarian
[23] = system: RXF 393 renal
[24] = system: KM12 colon
[25] = system: SK-MEL-5 melanoma
[26] = system: DMS 273 small cell lung
[27] = system: SK-MEL-2 melanoma
[28] = system: K-562 leukemia
[29] = system: HOP-62 NSCLC
[30] = system: HCT-15 colon
[31] = system: NCI-H226 lung
[32] = system: SNB-78 CNS
[33] = system: UO-31 renal
[34] = system: HCC-2998 colon
[35] = system: SNB-19 CNS
[36] = system: HT29 colon
[37] = system: A498 renal
[38] = system: DMS 114 small cell lung
[39] = system: UACC-62 melanoma
[40] = system: SF-539 CNS
[41] = system: HOP-18 NSCLC
[42] = system: HL-60(TB) leukemia
[43] = system: OVCAR-8 ovarian
[44] = system: LXFL 529 NSCLC
[45] = system: NCI-H522 lung
[46] = system: OVCAR-3 ovarian
[47] = system: SF-295 CNS
[48] = system: U251 CNS
[49] = system: HOP-92 NSCLC
[50] = system: TK-10 renal
[51] = system: SR leukemia
[52] = system: SK-OV-3 ovarian
[53] = system: KM20L2 colon
[54] = system: SK-MEL-28 melanoma
[55] = system: HCT-116 colon
[56] = system: 786-0 renal
[57] = system: M19-MEL melanoma
[58] = system: RPMI-8226 leukemia
[59] = system: MDA-N
[60] = system: NCI/ADR-RES ovarian
[61] = system: HS 578T breast
[62] = system: PC-3 prostate
[63] = system: T-47D breast
[64] = system: MDA-MB-231 breast
[65] = system: MDA-MB-435
[66] = system: BT-549 breast
[67] = system: DU-145 prostate

Measured: TGI

C1COCCSC2=C(SCCO1)SC(=C1SC3=C(SCCOCCOCCS3)S1)S2
73.3 µM: [3]
51.4 µM: [8]
not listed: [57] | [58] | [59] | [60] | [61] | [62] | [63] | [64] | [65] | [66] | [67]
> 100 µM: all other assays above

CC1CCC(C(C)(C)c2ccccc2)C(=O)C1 (centres undefined)
not listed: [18] | [23] | [31] | [45] | [51] | [54] | [59] | [60] | [61] | [62] | [63] | [64] | [65] | [66] | [67]
> 100 µM: all other assays above

CC(=O)OC(CCC1(C)OC1COc1ccc(CCNC(=O)C=C(C)C)cc1)C(C)(C)OC(C)=O (centres undefined)
> 92.1 µM: [11]
40.4 µM: [65]
> 92.7 µM: [16]
25.4 µM: [66]
51.9 µM: [59]
> 56.7 µM: [42]
15.6 µM: [25]
39.1 µM: [7]
> 74.4 µM: [51]
60.7 µM: [58]
98.1 µM: [8]
47.9 µM: [60]
48.7 µM: [38]
86.3 µM: [3]
> 57.6 µM: [6]
> 31.6 µM: [23]
78.4 µM: [24]
27.3 µM: [21]
not listed: [17]
> 100 µM: all other assays above

c1ccc2c(c1)OCCOCCOc1ccccc1OCCO2
87.7 µM: [53]
69.1 µM: [42]
88.2 µM: [14]
77.1 µM: [5]
70.2 µM: [58]
70 µM: [46]
not listed: [3] | [34] | [51] | [59] | [60] | [61] | [62] | [63] | [64] | [65] | [66] | [67]
> 100 µM: all other assays above
